# Measured values from patent US20240252463A1, “METHODS OF TREATING FIBROTIC PATHOLOGIES” (Mayo Foundation for Medical Education and Research, priority 2018, published 2024).
# Tests used:
# [1] = tested on: hepatic stellate cells (HSCs); assay: Western blot of αSMA and Fibronectin in TGFβ-stimulated hepatic stellate cells; format: cell-based, human; conditions: TGFβ 48 hours +/- DHX 10 μM
# Description: FIGS. 10A-10D DHX reverses hepatic stellate cell activation and in vivo hepatic fibrosis. 10a. DRD1 is preferentially expressed in cultured human hepatic stellate cells (HSCs): ACTA2, PDGFRA positive, relative to cultured human hepatocytes (Heps): ALB positive. N=1. 10b. DHX inhibits TGFβ-mediated hepatic stellate cell activation in vitro. HSCs were stimulated with TGFβ for 48 hours+/−DHX (10 μM) prior to total protein isolation and western blot analysis of αSMA and Fibronectin. N=3 (***p<0.001, **p<0.01, *p<0.05 vs. Control+TGFβ). 10c. DHX reverses Bile duct ligation (BDL) mediated fibrosis in vivo measured by trichrome staining, and 10d. hydroxyproline. Sham Control N=5, BDL Control N=7, and BDL DHX N=8 (**p<0.01 vs. BDL Control).
# Western Blotting: Cells were plated in EMEM containing 10% FBS overnight. Media was exchanged with EMEM containing 0.1% FBS for 24 hours. Prior to protein isolation cells were treated with the indicated concentration of compounds for the indicated time. Total protein was isolated using RIPA buffer (pH 8.0) containing Pierce Phosphatase Inhibitor (Thermo) and Halt Protease Inhibitor Cocktail (Thermo). Lysate total protein concentration was determined using Pierce BCA Protein Assay Kit (Thermo) and samples were run on a 10% polyacrylamide gel. […] Plates were imaged via a Li-Cor OdysseyXL system with quantification performed via densitometry.
# [2] = tested on: IMR-90 cells and IPF Patient-Derived Lung fibroblasts; assay: Proliferation and apoptosis-factor expression of lung fibroblasts; format: cell-based, human
# Description: IPF fibroblast and Normal lung fibroblast co-culture proliferation. Cell are pre-labelled with fluorescent dyes (red and green) and then co-cultured at a Ratio of 1:1 in 96 well plates. Cell counts are determined every 24 hours and plotted as a ratio of IPF/HLF cells. In the control wells the IPF cells outgrow and take over the well. N=2.
# Proliferation of lung fibroblasts (IMR-90 cells and IPF Patient-Derived Lung fibroblasts) measured for 4 days in the presence of GPCR agonists ET-1 (100 nM) and LPA (10 μM) (32A, 32B) or growth factors TGFβ (2 ng/mL) and CTGF (100 ng/mL) (32C, 32D)+/−10M DHX. Cells were fixed and counted with DAPI at the end of each day. N=3 technical triplicates. RNA Expression of pro-apoptotic factor BIM (32E, 32F) and anti-apoptotic factor BCL2 (32G, 32H) was assessed following 24 treatment with DHX (10 μM). N=4.
smiles,measurement,setting,value
"Oc1cc2c(cc1O)[C@H]1c3ccccc3CN[C@@H]1CC2 (racemic) [Dihydrexidine, dihydrexidine]",TGFβ-mediated HSC expression of SMA and FN protein,[1],significant reversal of both
same,RNA expression of pro-apoptotic BIM and anti-apoptotic BCL2,[2]; 24 treatment with DHX (10 μM),primes lung fibroblasts for apoptosis
same,proliferation of lung fibroblasts,"[2]; 4 days, with ET-1, LPA, TGFβ or CTGF +/−10M DHX",blocks proliferation
